Experimental data from US20250161340A1, “COMPOSITION FOR PREVENTING, ALLEVIATING OR TREATING DRY EYE SYNDROME OR MEIBOMIAN GLAND DYSFUNCTION” (SEOUL NATIONAL UNIVERSITY HOSPITAL, priority 2022, published 2025).

Tests used:
[1] = test system: CD3-positive immune cells; test: CD3 immunostaining of lacrimal glands, Sjögren's syndrome-related model; type: in vivo, mouse; conditions: 12-week-old NOD.B10.H2^b mice; 5 μL of 1,5DQ (50 μg/μL) twice a day for 5 days; vs PBS
Procedure: Sjögren's syndrome-related inflammatory dry eye syndrome mice, i.e., NOD.B10.H2^b mice, typically show increased infiltration of inflammatory cells into the lacrimal glands between 11 to 14 weeks old. 12-week-old NOD.B10.H2^b mice were divided into two groups, and (i) 5 μL of 1,5DQ (50 μg/μL) or (ii) 5 μL of PBS was instilled into both eyes of each mouse twice a day for 5 days, and then the level of inflammatory cell infiltration in the lacrimal glands was evaluated. In addition, the extraorbital and intraorbital lacrimal glands, which had been removed from each mouse and sectioned, were immunostained with CD3, T cells were observed using the stained CD3 under a microscope (FIGS. 4A and 4B) and counted, and then the level of immune cell infiltration in the lacrimal glands was quantified (FIG. 4C).

[2] = test system: stearoyl-CoA desaturase (SCD) 1; test: SCD1 transcription in eyelids by real-time RT PCR; type: in vivo, mouse; conditions: 12-week-old NOD.B10.H2^b mice; 5 μL of 1,5DQ (50 μg/μL) twice a day for 5 days; vs PBS
Procedure: (§1) 12-week-old NOD.B10.H2^b mice were divided into two groups, and (i) 5 μL of 1,5DQ (50 μg/μL) or (ii) 5 μL of PBS was instilled into both eyes of each mouse twice a day for 5 days. After removing the lower and upper eyelids of each mouse model, the expression level of meibomian gland differentiation factors in the eyelids was determined using real-time RT PCR. The meibomian glands are composed of sebocytes, and the transcription levels of stearoyl-CoA desaturase (SCD) 1 and SCD3, which are sebocyte-specific genes, were measured.

[3] = test system: human corneal epithelial cells; test: Apoptosis of corneal epithelial cells by annexin V/PI flow cytometry, hyperosmotic environment; type: cell-based; conditions: hyperosmotic environment (100 mM NaCl), 24 hours
Procedure: Corneal epithelial cells primarily cultured from human corneal limbal cells were treated with 100 mM NaCl for exposure to a hyperosmotic environment, and treated with 0, 10, 25, 50, or 100 μg/mL of 1,5DQ for 24 hours, and the degree of apoptosis was measured by performing flow cytometry after annexin V (ANX) and propidium iodide (PI) staining.

[4] = test system: matrix metallopeptidase 9 (MMP-9); test: MMP-9 transcripts in eyelids (meibomian glands) by real-time RT PCR, Sjögren's syndrome-related model; type: in vivo, mouse; conditions: 12-week-old NOD.B10.H2^b mice; 5 μL of 1,5DQ (50 μg/μL) twice a day for 5 days; vs PBS
Procedure: (§2) 12-week-old NOD.B10.H2^b mice were divided into two groups, and (i) 5 μL of 1,5DQ (50 μg/μL) or (ii) 5 μL of PBS was instilled into both eyes of each mouse twice a day for 5 days. The degree of inflammation activation in the eyelids was evaluated by measuring the levels of transcripts of the inflammatory cytokines IL-6 and tumor necrosis factor-α (TNF-α), and another inflammatory factor, matrix metallopeptidase 9 (MMP-9), using real-time RT PCR.

[5] = test system: tumor necrosis factor-α (TNF-α); test: TNF-α transcripts in eyelids (meibomian glands) by real-time RT PCR, Sjögren's syndrome-related model; type: in vivo, mouse; conditions: 12-week-old NOD.B10.H2^b mice; 5 μL of 1,5DQ (50 μg/μL) twice a day for 5 days; vs PBS
Procedure: as §2

[6] = test system: dry eye syndrome mouse models undergoing desiccating stress (BALB/c mice); test: Desiccating stress dry eye syndrome mouse model: corneal epithelial defects (Lissamine green) and tear secretion (phenol red thread); type: in vivo; conditions: 8-week-old BALB/c mice, vs PBS
Procedure: Two types of dry eye syndrome mouse models were used to examine whether 1,5DQ instillation is effective for dry eye syndrome. The first mouse model is a desiccating stress model, and BALB/c mice were reared in a dry environment (humidity: 20 to 30%) while administering a drug that suppresses tear secretion (scopolamine hydrobromide 0.5 mg/0.2 mL) intraperitoneally three times a day. The second mouse model is a Sjögren's syndrome-related inflammatory dry eye syndrome mouse model, and NOD.B10.H2^b mice were used. […]
(§3) In each of the two types of dry eye syndrome mouse models, the dry eye treatment effect of 1,5DQ instillation was investigated. The degree of corneal epithelial defects was measured by instilling a drop of the Lissamine green vital dye on the cornea and then observing the degree of stained corneal epithelial defects under a microscope and clinical scoring the same. The amount of tear secretion was evaluated by placing a thread soaked with a phenol red dye on the outer canthus of the mouse for 1 minute and measuring the length moistened by tears (length of the dyed area).
(§4) 8-week-old BALB/c mice undergoing desiccating stress were divided into two groups, and (i) 5 μL of 1,5DQ (50 μg/μL) or (ii) 5 μL of PBS was instilled into both eyes of each mouse twice a day for 5 days, and then the degree of corneal epithelial defects and the amount of tear secretion were evaluated.

[7] = test system: human corneal epithelial cells; test: MTT cell viability of corneal epithelial cells, normal or hyperosmotic environment; type: cell-based; conditions: 24 hours
Procedure: Corneal epithelial cells primarily cultured from human corneal limbal cells were treated with 100 mM NaCl for exposure to a hyperosmotic environment, and treated with 0, 10, 25, 50, or 100 μg/mL of 1,5DQ for 24 hours, and then cell viability was evaluated through MTT assay.

[8] = test system: meibomian glands; test: Area of eyelid meibomian glands, Sjögren's syndrome-related model; type: in vivo, mouse; conditions: 12-week-old NOD.B10.H2^b mice; 5 μL of 1,5DQ (50 μg/μL) twice a day for 5 days; vs PBS
Procedure: 12-week-old NOD.B10.H2^b mice were divided into two groups, and (i) 5 μL of 1,5DQ (50 μg/μL) or (ii) 5 μL of PBS was instilled into both eyes of each mouse twice a day for 5 days. The area of the meibomian glands was confirmed by removing an eyelid from the mouse model and then measuring the area of 3 mm at the center.

[9] = test system: Sjögren's syndrome-related inflammatory dry eye syndrome mouse models (NOD.B10.H2^b mice); test: Sjögren's syndrome-related inflammatory dry eye syndrome mouse model: corneal epithelial defects and tear secretion; type: in vivo; conditions: for corneal epithelial defects: vs PBS or 5 μg/μL
Procedure: Two types of dry eye syndrome mouse models were used to examine whether 1,5DQ instillation is effective for dry eye syndrome. The first mouse model is a desiccating stress model, and BALB/c mice were reared in a dry environment (humidity: 20 to 30%) while administering a drug that suppresses tear secretion (scopolamine hydrobromide 0.5 mg/0.2 mL) intraperitoneally three times a day. The second mouse model is a Sjögren's syndrome-related inflammatory dry eye syndrome mouse model, and NOD.B10.H2^b mice were used. In the NOD.B10.H2^b mice, under normal environments, inflammation in the lacrimal glands and on the ocular surface spontaneously increases at about 11 weeks, leading to destruction of the lacrimal glands and ocular surface, decreased tear secretion, and severe dry eye syndrome accompanied by ocular surface epithelial defects progresses between 11 and 14 weeks.
as §3
as §4, with “As described above, as Sjögren's syndrome-related inflammatory dry eye syndrome mice, NOD.B10.H2^b” for “8-week-old BALB/c”, “were used. 12-week-old mice” for “undergoing desiccating stress”
Accordingly, the dry eye syndrome treatment effect according to the 1,5DQ treatment concentration was investigated. 12-week-old NOD.B10.H2^b mice (Sjögren's syndrome-related inflammatory dry eye syndrome mouse models) were divided into four groups, and (i) 5 μL of PBS, (ii) 5 μL of 1,5DQ (5 μg/μL), (iii) 5 μL of 1,5DQ (50 μg/μL), or (iv) 5 μL of 1,5DQ (500 μg/μL) was instilled into both eyes twice a day for 5 days, and then the degree of corneal epithelial defects and the amount of tear secretion were evaluated.

[10] = test system: SCD3; test: SCD3 transcription in eyelids by real-time RT PCR; type: in vivo, mouse; conditions: 12-week-old NOD.B10.H2^b mice; 5 μL of 1,5DQ (50 μg/μL) twice a day for 5 days; vs PBS
Procedure: as §1

[11] = test system: IL-6; test: IL-6 transcripts in eyelids (meibomian glands) by real-time RT PCR, Sjögren's syndrome-related model; type: in vivo, mouse; conditions: 12-week-old NOD.B10.H2^b mice; 5 μL of 1,5DQ (50 μg/μL) twice a day for 5 days; vs PBS
Procedure: as §2

[12] = test system: interleukin 1β (IL-1β); test: IL-1β transcripts in lacrimal glands by real-time RT PCR, desiccating stress model; type: in vivo, mouse; conditions: BALB/c mice, 5 μL of 1,5DQ (50 μg/μL) twice a day for 5 days, vs PBS
Procedure: Desiccating stress-induced 8-week-old BALB/c mice were divided into two groups, and (i) 5 μL of 1,5DQ (50 μg/μL) or (ii) 5 μL of PBS was instilled into both eyes of each mouse twice a day for 5 days. The lacrimal glands of a mouse were classified into an extraorbital lacrimal gland and an intraorbital lacrimal gland, and the degree of inflammatory activation in each lacrimal gland was evaluated by measuring the levels of transcripts of inflammatory cytokine interleukin 1β (IL-1β) using real-time RT PCR.

[13] = 12-week-old NOD.B10.H2^b mice, 5 μL of 1,5DQ (50 μg/μL) instilled twice a day for 5 days, vs PBS (Example 1-2)

1,5-O-dicaffeoylquinic acid [1,5DQ]
number of CD3-positive immune cells deposited in the lacrimal glands [1]: significantly decreased
expression of SCD1 in the eyelids [2]: significantly increased
apoptosis level of the corneal epithelial cells ([3]; 10 μg/mL 1,5DQ): significantly reduced
apoptosis level of the corneal epithelial cells ([3]; 25 μg/mL 1,5DQ): significantly reduced
apoptosis level of the corneal epithelial cells ([3]; 50 μg/mL 1,5DQ): significantly reduced
MMP-9 expression in the meibomian glands of the eyelids [4]: significantly reduced
TNF-α expression in the meibomian glands of the eyelids [5]: significantly reduced
degree of corneal epithelial defects ([6]; 5 μL of 1,5DQ (50 μg/μL) instilled in both eyes twice a day for 5 days): significantly reduced
amount of tear secretion ([6]; 5 μL of 1,5DQ (50 μg/μL) instilled twice a day for 5 days): significantly increased
cell viability (MTT) ([7]; hyperosmotic environment (100 mM NaCl), 10 μg/mL 1,5DQ): significantly increased
cell viability (MTT) ([7]; hyperosmotic environment (100 mM NaCl), 25 μg/mL 1,5DQ): significantly increased
cell viability (MTT) ([7]; hyperosmotic environment (100 mM NaCl), 50 μg/mL 1,5DQ): significantly increased
cell viability (MTT) ([7]; hyperosmotic environment (100 mM NaCl), 100 μg/mL 1,5DQ): significantly increased
cell viability (MTT) ([7]; normal corneal epithelial cells not treated with NaCl, 25 μg/mL 1,5DQ): significantly increased
cell viability (MTT) ([7]; normal corneal epithelial cells not treated with NaCl, 50 μg/mL 1,5DQ): significantly increased
area of the meibomian glands in the lower eyelid [8]: significantly increased
amount of tear secretion [9, 13]: significantly increased
degree of corneal epithelial defects [9, 13]: significantly reduced
amount of tear secretion, dependence on concentration ([9]; Example 4, NOD.B10.H2^b mice, 5, 50 or 500 μg/μL 1,5DQ, 5 μL twice a day for 5 days): increasing trend depending on concentration
corneal epithelial defects ([9]; Example 4, NOD.B10.H2^b mice, 5 μL of 1,5DQ 50 μg/μL twice a day for 5 days): significantly reduced
corneal epithelial defects ([9]; Example 4, NOD.B10.H2^b mice, 5 μL of 1,5DQ 500 μg/μL twice a day for 5 days): significantly reduced
amount of tear secretion, difference between the groups ([9]; Example 4, NOD.B10.H2^b mice, PBS, 5, 50 or 500 μg/μL 1,5DQ, 5 μL twice a day for 5 days): no statistically significant difference
expression of SCD3 in the eyelids [10]: significantly increased
IL-6 expression in the meibomian glands of the eyelids [11]: significantly reduced
interleukin 1β expression, extraorbital lacrimal gland [12]: significant reduced
interleukin 1β expression, intraorbital lacrimal gland [12]: significant reduced
